Here are results for 34 compounds from US20020028938A1, “Prostaglandin endoperoxide H synthase biosynthesis inhibitors” (priority 1997, published 2002).

One may read the melting point as the temperature of the solid-liquid transition.

Where only a bound is given, the exact number is not on record here.

With `CSc1ccc(-c2cnn(-c3ccc(F)cc3)c(=O)c2OC(C)C)cc1` [Example 199, 2-(4-Fluorophenyl)-4-(2-propoxy)-5-[4-(methylthio)phenyl]-3(2H)-pyridazinone], the melting point was in the range of 135 to 137 °C.
As for `CC(C)Oc1c(-c2ccc(S(C)(=O)=O)cc2)cnn(-c2ccc(F)cc2)c1=O` [Example 200, 2-(4-Fluorophenyl)-4-(2-propoxy)-5-[4-(methylsulfonyl)phenyl]-3(2H)-pyridazinone], the melting point lay within 160 to 162 °C.
With `CC(C)Oc1c(-c2ccc(S(C)(=O)=O)cc2)cnn(-c2cccc(Cl)c2)c1=O` [Example 201, 2-(3-Chlorophenyl)-4-(2-propoxy)-5-[4-(methylsulfonyl)phenyl]-3(2H)-pyridazinone] the figure was 134 to 136 °C; with `CC(C)Oc1c(-c2ccc(S(C)(=O)=O)cc2)cnn(-c2cccc(F)c2)c1=O` [Example 202, 2-(3-Fluorophenyl)-4-(2-propoxy)-5-[4-(methylsulfonyl)phenyl]-3(2H)-pyridazinone], 110 to 112 °C; with `CC(C)Oc1c(-c2ccc(S(C)(=O)=O)cc2)cnn(-c2cc(F)ccc2F)c1=O` [Example 204, 2-(2,5-Difluorophenyl)-4-(2-propoxy)-5-[4-(methylsulfonyl)phenyl]-3(2H)-pyridazinone], 161 to 164 °C.
`CS(=O)(=O)c1ccc(-c2cnn(-c3cccc(Cl)c3)c(=O)c2COC(=O)c2ccccc2)cc1` [Example 208, 2-(3-Chlorophenyl)-4-(benzoyloxymethyl)-5-[4-(methylsulfonyl)phenyl]-3(2H)-pyridazinone] displayed a melting point of 50 to 70 °C.
With `CS(=O)(=O)c1ccc(-c2cnn(CC(F)(F)F)c(=O)c2-c2ccc3c(c2)COC3=O)cc1` [Example 221, 2-(2,2,2-Trifluoroethyl)-4-(1-oxo-1,3-dihydro-2-benzofuran-5-yl)-5-[4-(methylsulfonyl)phenyl]-3(2H)-pyridazinone] the figure was 237 to 239 °C.
In the case of `C=CCc1c(-c2ccc(S(C)(=O)=O)cc2)cnn(CC(F)(F)F)c1=O` [Example 222, 2-(2,2,2-Trifluoroethyl)-4-(2-propenyl)-5-[4-(methylsulfonyl)phenyl]-3(2H)-pyridazinone], the melting point was in the range of 192 to 195 °C.
Consider `CC=C(C)c1c(-c2ccc(S(C)(=O)=O)cc2)cnn(CC(F)(F)F)c1=O` [Example 223, 2-(2,2,2-Trifluoroethyl)-4-(2-buten-2-yl)-5-[4-(methylsulfonyl)phenyl]-3(2H)-pyridazinone], for which the melting point fell in the range of 175 to 180 °C.
With `Cc1ccc(-c2c(-c3ccc(S(C)(=O)=O)cc3)cnn(-c3ccc(F)cc3)c2=O)cc1` [Example 229, 2-(4-Fluorophenyl)-4-(4-methylphenyl)-5-[4-(methylsulfonyl)-phenyl]-3(2H)-pyridazinone] the figure was 242 to 244 °C; with `CS(=O)(=O)c1ccc(-c2cnn(-c3ccc(F)c(F)c3)c(=O)c2Cc2ccccc2)cc1` [Example 233, 2-(3,4-Difluorophenyl)-4-benzyl-5-[4-(methylsulfonyl)phenyl]-3(2H)-pyridazinone], 166 to 168 °C.
With `CC#Cc1c(-c2ccc(S(C)(=O)=O)cc2)cnn(-c2ccc(F)c(F)c2)c1=O` [Example 238, 2-(3,4-Difluorophenyl)-4-(1-propynyl)-5-[4-(methylsulfonyl)phenyl]-3(2H)-pyridazinone] the figure was 149 to 150 °C; with `Cc1ccc(-c2c(-c3ccc(S(C)(=O)=O)cc3)cnn(-c3ccc(F)cc3)c2=O)cc1F` [Example 250, 2-(4-Fluorophenyl)-4-(3-fluoro-4-methylphenyl)-5-[4-(methylsulfonyl)phenyl]-3(2H)-pyridazinone], 245 to 248 °C; with `CS(=O)(=O)c1ccc(-c2cnn(-c3ccc(F)c(F)c3)c(=O)c2Cc2ccc(F)c(F)c2)cc1` [Example 255, 2-(3,4-Difluorophenyl)-4-(3,4-difluorobenzyl)-5-[4-(methylsulfonyl)phenyl]-3(2H)-pyridazinone], 177 to 179 °C.
`CC(C)CCc1c(-c2ccc(S(C)(=O)=O)c(F)c2)cnn(-c2ccc(F)c(F)c2)c1=O` [Example 258, 2-(3,4-Difluorophenyl)-4-(3-methylbutyl)-5-[3-fluoro-4-(methylsulfonyl)phenyl]-3(2H)-pyridazinone] yielded a melting point of 119 to 121 °C.
As to `CSc1cc(-n2ncc(-c3ccc(S(C)(=O)=O)cc3)c(-c3ccc(F)cc3)c2=O)ccc1F` [Example 259, 2-[4-Fluoro-3-(methylthio)phenyl]-4-(4-fluorophenyl)-5-[4-(methylsulfonyl)phenyl]-3(2H)-pyridazinone], the melting point was in the range of 105 to 107 °C.
With `CS(=O)(=O)c1ccc(-c2cnn(CC(F)(F)F)c(=O)c2Oc2ccc(C#N)cc2)cc1` [Example 264, 2-(2,2,2-Trifluoroethyl)-4-(4-cyanophenoxy)-5-[4-(methylsulfonyl)phenyl]-3(2H)-pyridazinone] the figure was 179 to 181 °C; with `CS(=O)(=O)c1ccc(-c2cnn(CC(F)(F)F)c(=O)c2Oc2ccc(-c3ccccc3)cc2)cc1` [Example 268, 2-(2,2,2-Trifluoroethyl)-4-(4-phenylphenoxy)-5-[4-(methylsulfonyl)phenyl]-3(2H)-pyridazinone], 163 to 165 °C.
`CS(=O)(=O)c1ccc(-c2cnn(CC(F)(F)F)c(=O)c2OCc2ccccc2)cc1` [Example 270, 2-(2,2,2-Trifluoroethyl)-4-(phenylmethoxy)-5-[4-(methylsulfonyl)phenyl]-3(2H)-pyridazinone]: the melting point lay in the range of 121 to 123 °C.
The compound `CS(=O)(=O)c1ccc(-c2cnn(CC(F)(F)F)c(=O)c2OC2CCc3ccccc32)cc1` (stereo not shown) [Example 276, 2-(2,2,2-Trifluoroethyl)-4-(1-indanyloxy)-5-[4-(methylsulfonyl)phenyl]-3(2H)-pyridazinone] showed a melting point of 113 to 114 °C.
With `CC(C)(C)CCOc1c(-c2ccc(S(C)(=O)=O)cc2)cnn(CC(F)(F)F)c1=O` [Example 280, 2-(2,2,2-Trifluoroethyl)-4-(3,3-dimethylbutoxy)-5-[4-(methylsulfonyl)phenyl]-3(2H)-pyridazinone] the figure was 83 to 85 °C; with `CS(=O)(=O)c1ccc(-c2cnn(-c3ccc(F)c(F)c3)c(=O)c2Oc2ccc(Br)cc2)cc1` [Example 282, 2-(3,4-Difluorophenyl)-4-(4-bromophenoxy)-5-[4-(methylsulfonyl)phenyl]-3(2H)-pyridazinone], 196 to 199 °C; with `CS(=O)(=O)c1ccc(-c2cnn(CC(F)(F)F)c(=O)c2SCc2ccccc2)cc1` [Example 285, 2-(2,2,2-Trifluoroethyl)-4-phenylmethylthio-5-[4-(methylsulfonyl)phenyl]-3(2H)-pyridazinone], 108 to 111 °C.
Turning to `CC(C)(C)Sc1c(-c2ccc(S(C)(=O)=O)cc2)cnn(CC(F)(F)F)c1=O` [Example 290, 2-(2,2,2-Trifluoroethyl)-4-(tert-butylthio)-5-[4-(methylsulfonyl)phenyl]-3(2H)-pyridazinone], the melting point lay in the range of 186 to 189 °C.
Regarding `CS(=O)(=O)c1ccc(-c2cnn(CC(F)(F)F)c(=O)c2N)cc1` [Example 294, 2-(2,2,2-Trifluoroethyl)-4-amino-5-[4-(methylsulfonyl)phenyl]-3(2H)-pyridazinone], the melting point was over 260 °C.
With `COCCCNc1c(-c2ccc(S(C)(=O)=O)cc2)cnn(CC(F)(F)F)c1=O` [Example 295, 2-(2,2,2-Trifluoroethyl)-4-(3-methoxylpropylamino)-5-[4-(methylsulfonyl)phenyl]-3(2H)-pyridazinone] the figure was 110 to 113 °C; with `CS(=O)(=O)c1ccc(-c2cnn(CC(F)(F)F)c(=O)c2NC2CCCC2)cc1` [Example 296, 2-(2,2,2-Trifluoroethyl)-4-(cyclopentylamino)-5-[4-(methylsulfonyl)phenyl]-3(2H)-pyridazinone], 134 to 139 °C.
As to `COc1ccc(CCNc2c(-c3ccc(S(C)(=O)=O)cc3)cnn(CC(F)(F)F)c2=O)cc1OC` [Example 298, 2-(2,2,2-Trifluoroethyl)-4-(3,4-dimethoxyphenethylamino)-5-[4-(methylsulfonyl)phenyl]-3(2H)-pyridazinone], the melting point lay in the range of 163 to 165 °C.
With `CS(=O)(=O)c1ccc(-c2cnn(CC(F)(F)F)c(=O)c2NCC2CC2)cc1` [Example 302, 2-(2,2,2-Trifluoroethyl)-4-(cyclopropylmethylamino)-5-[4-(methylsulfonyl)phenyl]-3(2H)-pyridazinone] the figure was 145 to 146 °C; with `CS(=O)(=O)c1ccc(-c2cnn(CC(F)(F)F)c(=O)c2NC2CCc3ccccc32)cc1` (stereo not shown) [Example 303, 2-(2,2,2-Trifluoroethyl)-4-(2,3-dihydro-1H-inden-1-ylamino)-5-[4-(methylsulfonyl)phenyl]-3(2H)-pyridazinone], 155 to 158 °C; with `CS(=O)(=O)c1ccc(-c2cnn(CC(F)(F)F)c(=O)c2N2CCCCC2)cc1` [Example 304, 2-(2,2,2-Trifluoroethyl)-4-(1-piperidinyl)-5-[4-(methylsulfonyl)phenyl]-3(2H)-pyridazinone], 160 to 161 °C.
With `CS(=O)(=O)c1ccc(-c2cnn(CC(F)(F)F)c(=O)c2NCCCO)cc1` [Example 305, 2-(2,2,2-Trifluoroethyl)-4-(3-hydroxypropylamino)-5-[4-(methylsulfonyl)phenyl]-3(2H)-pyridazinone] the figure was 152 to 154 °C; with `C[C@@H](O)CNc1c(-c2ccc(S(C)(=O)=O)cc2)cnn(CC(F)(F)F)c1=O` [Example 307, 2-(2,2,2-Trifluoroethyl)-4-(2R-hydroxylpropylamino)-5-[4-(methylsulfonyl)phenyl]3(2H)-pyridazinone], 140 to 142 °C; with `CS(=O)(=O)c1ccc(-c2cnn(CC(F)(F)F)c(=O)c2NCCC#N)cc1` [Example 308, 2-(2,2,2-Trifluoroethyl)-4-(2-cyanoethylamino)-5-[4-(methylsulfonyl)phenyl]-3(2H)-pyridazinone], 172 to 174 °C.
